The melting point is the temperature of the solid-liquid transition.

These results are taken from patent publication US6469042B1, “Fluoro oxindole derivatives as modulators if KCNQ potassium channels” (Bristol-Myers Squibb Company, priority 2001, dated 2002).

Marks after values point to notes of the source that are not given here.

Data set [1] deals with T1, cloned mouse KCNQ2 (mKCNQ2) (Mus musculus, UniProt Q9Z351).
T1 construct: expressed in transfected cells; host or cells: Xenopus oocytes injected with mKCNQ2 cRNA
T1 sequence (Q9Z351 whole entry): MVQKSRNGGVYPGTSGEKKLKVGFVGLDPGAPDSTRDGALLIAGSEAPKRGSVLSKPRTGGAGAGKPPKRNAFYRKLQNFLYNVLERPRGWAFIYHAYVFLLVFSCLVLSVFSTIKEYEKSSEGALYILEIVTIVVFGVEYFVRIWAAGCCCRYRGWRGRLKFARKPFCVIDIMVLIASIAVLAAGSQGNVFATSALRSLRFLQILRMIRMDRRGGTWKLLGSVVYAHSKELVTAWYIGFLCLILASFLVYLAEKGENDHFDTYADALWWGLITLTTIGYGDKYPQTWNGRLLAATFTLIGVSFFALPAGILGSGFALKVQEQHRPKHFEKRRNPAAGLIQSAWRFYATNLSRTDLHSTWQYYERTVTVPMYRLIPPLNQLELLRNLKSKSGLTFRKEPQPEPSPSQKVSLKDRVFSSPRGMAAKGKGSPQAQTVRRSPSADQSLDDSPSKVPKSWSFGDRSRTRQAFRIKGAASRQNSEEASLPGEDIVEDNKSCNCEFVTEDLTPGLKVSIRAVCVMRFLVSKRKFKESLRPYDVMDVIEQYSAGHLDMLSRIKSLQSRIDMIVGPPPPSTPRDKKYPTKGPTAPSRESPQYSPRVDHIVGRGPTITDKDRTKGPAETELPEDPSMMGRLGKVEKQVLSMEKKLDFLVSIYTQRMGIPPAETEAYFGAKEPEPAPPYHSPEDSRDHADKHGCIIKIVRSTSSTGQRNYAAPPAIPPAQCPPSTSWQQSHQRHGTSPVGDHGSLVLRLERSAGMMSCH
The data set is described as follows: KCNQ oocyte two-electrode voltage clamp, KCNQ2-mediated outward current. In kind it is cell-based. As to conditions: expressed as percent increase over KCNQ current in controls, Xenopus oocytes. The method, then: The ability of compounds described in the present invention to open KCNQ channels and increase whole-cell outward (K^+) KCNQ-mediated currents was assessed under voltage-clamp conditions by determining their ability to increase cloned mouse KCNQ2 (mKCNQ2)-mediated, heteromultimeric KCNQ2/3 (mμKCNQ2/3)-mediated, and human KCNQ5 (hKCNQ5)-mediated outward currents heterologously expressed in Xenopus oocytes. Oocytes were prepared and injected using standard techniques; each oocyte was injected with approximately 50 nl of mKCNQ2, or hKCNQ5 cRNA. In the case of mKCNQ2/3 heteromultimeric channel expression, equal amounts (25-50 nL) of ech cRNA were co-injected. […] Following injection, oocytes were maintained at 17° in ND96 medium consisting of (in mM): NaCl, 90; KCl, 1.0; CaCl2, 1:0; MgCl2, 1:0; HEPES, 5.0; pH 7.5. Horse serum (5%) and penicillin/streptomyin (5%) were added to the incubation medium. Recording commenced 2-6 days following mRNA injection. Prior to the start of an experiment oocytes were placed in a recording chamber and incubated in Modified Barth's Solution (MBS) consisting of (in mM): NaCl, 88; NaHCO3, 2.4; KCl, 1.0; HEPES, 10; MgSO4, 0.82; Ca(NO3)2, 0.33; CaCl2, 0.41; pH 7.5.
Oocytes were impaled with electrodes (1-2 MΩ) and standard 2-electrode voltage clamp techniques were employed to record whole-cell membrane currents. Recordings were accomplished using standard two-electrode voltage clamp techniques [Stuhmer, W., et al., Methods in Enzymolgy, Vol. 207: 319-339 (1992)]. Voltage-clamp protocols typically consisted of a series of voltage steps 1-5 sec duration, in +10 mV steps from a holding potential of −90 mV to a maximal potential of +40 mV; records were digitized at 5 kHz and stored on a computer using pClamp data acquisition and analysis software (Axon Instruments). Compounds were evaluated at a single concentration (10 or 20 μM); the effect of the selected compounds of Formula I on KCNQ2 current was expressed as the percent of control current and is listed in Table I.
(Two-electrode voltage clamp is typically applied to oocytes expressing channels or transporters.)

Data set [2] relates to SSS-stimulated trigeminal field response in trigeminal nucleus caudalis. The data set is described as follows: In vivo electrophysiology: superior sagital sinus (SSS)-stimulated trigeminal field response (migraine model). Also noted: species or system rat. The source says:
Male Long-Evans rats (Harlan, 250-400 g) were used in the experiments described in this example. Prior to testing, rats were allowed access to food and water ad libitum and were maintained on a 12:12-h light/dark cycle. Rats were group housed in an Association for Assessment and Accreditation of Laboratory Animal Care (AAALAC) accredited facility and cared for in strict compliance with all applicable regulations.
Rats were anesthetized with 1.2 g/kg i.p. urethane (#U-2500, Sigma Chemical Company, St. Louis, Mo.) and given supplemental urethane as needed. In the case of intravenous (i.v.) drug administration, the jugular veins of the rats were cannulated using sylastic tubing pre-filled with vehicle.
Rats were placed in a stereotaxic device (#1730, David Kopf Instruments, Tujunga, Calif.) and an incision was made to expose the entire skull that continued caudally to the level of the C1/C2 vertebral juncture. Using a microdrill (#770, Dremel, Racine, Wis.) and #4 carbide burr (Henry Schein, Melville, N.Y.), a square section of skull was removed extending from the bregma position, rostrally, to the lambda position, caudally. […]
Stimulated field responses were recorded in the trigeminal nucleus caudalis using Teflon coated stainless-steel microelectrodes (5 megaohms impedance, Frederick Haer, Brunswick, Me.) and amplified and filtered (0.1 Hz-10 kHz) using a differential amplifier (#IsoDAM8, World Precision Instruments, Sarasota, Fla.). […]
Three baseline measures (i.e., 100% of control), each consisting of 100 evoked trigeminal field potentials, were sampled prior to drug injection. […] Following injection of test substances, data were sampled for 1 hour, averaged into 5 minute bins (90 evoked potentials) and expressed as a percent change from average baseline values for the purposes of statistical analysis. Data were analyzed using repeated measures analyses of variance comparing vehicle and drug effects. […]

On to “(±)-3-[5-Chloro-2-(2,2,2-trifluoroethoxy)phenyl]-5,6-dichloro-1,3-dihydro-3-fluoro-2H-indol-2-one [Example 9]”, for which the “KCNQ2 Current” value in data set [1] (at 20 μM) is on record as “+ (+ = 120-150%)”.

In the case of `O=C1Nc2cc(-c3ccc(C(F)(F)F)cc3)ccc2C1(F)c1cc(Cl)ccc1OCC(F)(F)F` (racemic) [Example 23, (±)-3-[5-Chloro-2-(2,2,2-trifluoroethoxy)phenyl]-1,3-dihydro-3-fluoro-6-[4-(trifluoromethyl)phenyl]-2H-indol-2-one], the melting point lay in the range of 103 to 105 °C. In the case of `O=C1Nc2cc(CF)ccc2C1(F)c1cc(Cl)ccc1OCC(F)(F)F` (racemic) [Example 7, (±)-3-[5-Chloro-2-(2,2,2-trifluoroethoxy)phenyl]-1,3-dihydro-3-fluoro-6-(fluoromethyl)-2H-indol-2-one], the melting point is 150 to 151 °C. Consider `O=C1Nc2cc(Cl)ccc2C1(F)c1cc(Cl)ccc1OCC(F)(F)F` (single isomer, unassigned; (+)) [Example 12, (+)-6-Chloro-3-[5-chloro-2-(2,2,2-trifluoroethox)phenyl]-1,3-dihydro-3-fluoro-2H-indol-2-one], for which, in data set [1] (at 20 μM), the “KCNQ2 Current” value is “++ (++ = >150%)”. As to `O=C1Nc2cc(F)ccc2C1(F)c1cc(Cl)ccc1OCC(F)(F)F` (racemic) [Example 6, (±)-3-[5-Chloro-2-(2,2,2-trifluoroethoxy)phenyl]-1,3-dihydro-3,6-difluoro-2H-indol-2-one], the melting point fell in the range of 200 to 202 °C. For `O=C1Nc2cc(C(F)(F)F)ccc2C1(F)c1cc(Cl)ccc1OCCF` (racemic) [Example 14, (±)-3-[5-Chloro-2-(2-fluoroethoxy)phenyl]-1,3-dihydro-3-fluoro-6-(trifluoromethyl)-2H-indol-2-one], the “KCNQ2 Current” value in data set [1] (at 20 μM) was “+ (+ = 120-150%)”. Consider `O=C1Nc2cc(C(F)(F)F)ccc2C1(F)c1cc(Cl)ccc1OCC(F)(F)F` (racemic) [Example 2, (±)-3-[5-Chloro-2-[(2,2,2-trifluoroethoxy)phenyl]-1,3-dihydro-3-fluoro-6-(trifluoromethyl)-2H-indol-2-one], for which the “decrease from control amplitude of SSS-stimulated trigeminal field response” value in data set [2] (50 mg/kg i.v., anesthetized Long-Evans rats, solution in 100% polyethylene glycol 400) was determined as 86.7±1.67%. In addition, the “reduction of trigeminal field response compared with vehicle” value in data set [2] (doses 0.1, 1.0, 10.0, 30.0 and 50.0 mg/kg i.v., p<0.01 in all cases) is “Significant reductions compared with vehicle”. The “reduction in the SSS-stimulated trigeminal field response” value in data set [2] (i.v., rats, overall ANOVA p<0.001) is on record as “dose-dependent reduction”. For the same compound, the “KCNQ2 Current” value in data set [1] (at 10 μM) is listed as “++** (++ = >150%)”.

For the compound `O=C1Nc2cc(C(F)(F)F)ccc2C1(F)c1cc(Cl)ccc1OCC(F)(F)F` (racemic) [Example 1, (±)-3-[5-Chloro-2-[(2,2,2-trifluoroethoxy)phenyl]-1,3-dihydro-3-fluoro-6-(trifluoromethyl)-2H-indol-2-one], the “KCNQ2 Current” value in data set [1] (at 10 μM) is on record as “++** (++ = >150%)”.

For the compound `O=C1Nc2cc(F)c(F)cc2C1(F)c1cc(Cl)ccc1OCC(F)(F)F` (racemic) [Example 10, (±)-3-[5-Chloro-2-(2,2,2-trifluoroethoxy)phenyl]-1,3-dihydro-3,5,6-trifluoro-2H-indol-2-one], the melting point was in the range of 200 to 203 °C. For the same compound, the “KCNQ2 Current” value in data set [1] (at 20 μM) is recorded as “+ (+ = 120-150%)”. `O=C1Nc2cc(Cl)ccc2C1(F)c1cc(Cl)ccc1OCC(F)(F)F` (racemic) [Example 11, (±)-6-Chloro-3-[5-chloro-2-(2,2,2-trifluoroethoxy)phenyl]-1,3-dihydro-3-fluoro-2H-indol-2-one] gave a melting point of 167 to 169 °C. Besides, the “KCNQ2 Current” value in data set [1] (at 20 μM) is reported as “++ (++ = >150%)”. `CCSc1ccc(Cl)cc1C1(F)C(=O)Nc2cc(C(F)(F)F)ccc21` (stereo not shown) [Example 17, 3-[5-Chloro-2-(ethylthio)phenyl]-1,3-dihydro-3-fluoro-6-(trifluoromethyl)-2H-indol-2-one] gave a melting point of 105 to 107 °C.
